# Laboratory results from patent publication US8946436B2, “Oxazolidinone compounds and their uses in preparation of antibiotics” (Sichuan Gooddoctor Pharmaceutical Group Co., Ltd., priority 2011, dated 2015).
# Tests used:
# Streptococcus agalactiae = test: MIC against clinically isolated strains, Streptococcus agalactiae; type: cell-based; conditions: Streptococcus agalactiae (17 strains)
# Description: (§1) Standard strains, including Staphylococcus aureus ATCC29213, S. pneumoniae ATCC49619, E. faecalis ATCC29212, are all available from the American Type Culture Collection.
# (§2) Clinically isolated strains: There are total 120 clinical strains of gram-positive bacterium including: 37 strains of Staphylococcus aureus (consisting of 14 strains of methicillin sensitive Staphylococcus aureus MSSA and 23 strains of methicillin resistant Staphylococcus aureus MRSA); 27 strains of Streptococcus pneumoniae (consisting of 13 strains of penicillin sensitive Streptococcus pneumoniae PSSP and 14 strains of penicillin insensitive or resistant Streptococcus pneumoniae PISP+PRSP); 15 strains of Streptococcus pyogenes; 17 strains of Streptococcus agalactiae; 24 stains of Enterococcus faecium (consisting of 12 strains of vancomycin sensitive Enterococcus faecium and 12 strains of vancomycin resistant Enterococcus faecium).
# (§3) (2) Tested compounds: Compound 13f was prepared by the methods above, with potency of over 98%; Linezolid was purchased from Pfizer, with potency of 100%.
# (§4) Staphylococcus and Enterococcus faecium were incubated in Mueller-Hinton agar medium (MHA medium) at 35° C. for 16-20 h; S. pneumoniae was incubated in Cation-Adjusted Mueller-Hinton Broth medium (CAMHB medium) supplemented with 2.5-5.5% (v/v) lysed horse blood (LHB) at 35° C. for 20-24 h; and Streptococcus were incubated in sheep blood-containing medium (prepared by addition of 5% defibrinated sheep blood into MHA media) at 35° C. for 20-24 h in 5% CO2 environment (CO2 incubator). Before test of the compound activity, each stock of the bacteria strains was activated and colonized in the following manner: the stock was transferred and cultured in a liquid culture medium, the culture liquid was smeared onto an agar plate with an inoculating loop to obtain bacterial colonies on the plate after incubation, and then a colony of the bacteria was chose to be suspended into the liquid culture medium for performing the test of compound activity. As a result, fresh bacteria cells were applied to the test. The standard strains were used as sensitive bacterium to control the quality of the experiments, and a plate or tube containing no antibacterial compounds is used as a blank control for the growth of test strains.
# (§5) The minimal inhibitory concentration (MIC) of the test compounds on the strains of Streptococcus pneumoniae was determined by a standard broth macrodilution method, while the MIC of the test compounds on the other bacteria stains was determined by standard agar double dilution methods. The concentration of the test compounds was in the range of 32 mg/L-0.016 mg/L. The bacterial suspensions to be tested were inoculated by a multipoint inoculator, and the inoculation amount at each point is 10^4 CFU. The MIC of the test compound to each strain of the bacteria was determined.
# [1] = system: Enterococcus faecium-resistant vancomycin; test: MIC against clinically isolated strains, vancomycin resistant Enterococcus faecium; type: cell-based; conditions: Enterococcus faecium-resistant vancomycin (12 strains)
# Description: as §1, §2, §3, §4, §5
# ATCC 25923 = test: Mouse model of systemic infection; type: in vivo, C57 mice; conditions: intravenous
# Description: Animal model: SPF grade C57 mice, 4-6 weeks age, weight 18-22 g, ten mice per group;
# Infectious strain: ATCC 25923, grown in a MHB medium to a period of logarithmic growth;
# Test compounds: Compound 13f prepared according to the methods above, and Linezolid as a control, purchased from Airsea Pharmaceutical Ltd., (Taizhou, ZheJiang Province, China;
# Formulation and dosage of the test compounds: To evaluate the treating effect of compound 13f, an animal model of intraperitoneal infection by bacteria was established and grouped into 13f group and Linezolid group. The same dosage of the compound 13f and Linezolid was administrated to the groups, respectively.
# The minimum lethal dose (MLD) was determined as follows: Bacterial stock liquid cultured overnight was adjusted to 0.5 McFarland with saline solution, and subsequently subjected to a proper serial dilution. 3-5 dilutions with different concentrations of the bacteria were used to infect mice (10 mice per concentration), respectively, by intraperitoneal injection with a volume of 0.5 mL of the dilution. The minimum concentration at which 100% mice were dead was regarded as MLD. For purpose of ensuring experimental reliability, two control groups (MLD control group and 1/10MLD control group) were used in this experiment. The mortality of the MLD control group was 100%, while the mortality of the 1/10OMLD control group was 30%. […] To enhance virulence of the infectious bacteria, 15% yeast was added into the bacterial liquid for infection.
# Experimental animal and grouping: SPF grade C57 mice (purchased from Experiment Animal Center, West China Hospital of Sichuan University), 4-6 weeks old, weighting 18-22 g, were randomly divided into groups, including model group, and treating groups consisting of group administrated with compound 13f at 5 mg/kg, group administrated with compound 13f at 10 mg/kg, group administrated with Linezolid at 5 mg/kg and group administrated with Linezolid at 10 mg/kg, with ten mice per group.
# 1) Based on the MLD result from the preliminary experiment, the mice were infected by intraperitoneal injection with a saline suspension of ATCC 25923, containing 15% yeast. Injection dosage of the bacteria was 0.2 OD/mice.
# 2) Administration time and frequency: The above mentioned compounds (compound 13f and Linezolid) were administrated to the mice of the treating groups 1 hour before and 4 hour after the infection, respectively. Meanwhile, the mice of the model group received only solvents in the same volume as that of the compound solution administrated in the treating group. The treating groups includes compound 13f group at 10 mg/kg, compound 13f group at 5 mg/kg, Linezolid group at 10 mg/kg and Linezolid group at 5 mg/kg.
# 3) Administration route: intravenous injection;
# 4) Dissolving compounds: The compounds were dissolved with 30% water solution of hydroxypropyl-β-cyclodextrin;
# 5) Efficacy observation: After infection and administration, the appetites, activities, symptoms and signs of the test mice were observed regularly. The survival rate was monitored every 4 h. The observation lasted for 7 days. During this period of observation, dissection of dying mice was immediately carried out after their death, and a histopathological examination was conducted, if necessary.
# 6) Evaluation: Main indexes include survival time, survival rate, and CFU count of organ and blood.
# [2] = 10 mg/kg, 1 hour before and 4 hour after infection, 7 days observation
structure (smiles),measurement,setting,value
"CC(=O)NC[C@H]1CN(c2ccc(-n3cc(-c4ccccn4)cn3)c(F)c2)C(=O)O1 [Compound 13f, (S)-N-((3-(3-fluoro-4-(4-(pyridin-2-yl)-1H-pyrazol-1-yl)phenyl)-2-oxooxazolidin-5-yl)methyl)acetamide]",MICmode,Streptococcus agalactiae,1 µg/L
same,MICrange,Streptococcus agalactiae,0.5 to 1 µg/L
same,MICmode,[1],1 µg/L
same,MICrange,[1],1 to 2 µg/L
same,in vivo treatment effect and protection effect compared with Linezolid,ATCC 25923; 5 mg/kg,better in vivo treatment effect and protection effect
same,time after infection at which death of mice was observed,ATCC 25923; 5 mg/kg,5 h
same,mortality,"ATCC 25923; 5 mg/kg, in 24 h",20%
same,therapeutic effect compared with linezolid,ATCC 25923; 10 mg/kg,same therapeutic effect as linezolid
same,survival rate,ATCC 25923; [2],100%
"CC(=O)NC[C@H]1CN(c2ccc(N3CCOCC3)c(F)c2)C(=O)O1 [Linezolid, reference compound]",MIC50,Streptococcus agalactiae,1 µg/L
same,MIC90,Streptococcus agalactiae,1 µg/L
same,MICmode,Streptococcus agalactiae,1 µg/L
same,MICrange,Streptococcus agalactiae,0.5 to 1 µg/L
same,MIC50,[1],1 µg/L
same,MIC90,[1],1 µg/L
same,MICmode,[1],1 µg/L
same,MICrange,[1],1 to 2 µg/L
same,time after infection at which death of mice was observed,ATCC 25923; 5 mg/kg,5 h
same,mortality,"ATCC 25923; 5 mg/kg, in 24 h",50%
same,mortality,"ATCC 25923; 5 mg/kg, in 48 h",70%
same,mortality,"ATCC 25923; 5 mg/kg, in 72 h",100%
same,protection rate,ATCC 25923; [2],100%
